# Source: US20240245702A1, “Inhibition of Lysine Demethylase 1 (Lsd1) Induces Differentiation of Hair Cells” (Massachusetts Eye and Ear Infirmary, priority 2018, published 2024)
# Assays:
# Format in all cases: cell-based, mouse
# Atoh1-nGFP cells = assay: Hair cell differentiation of LCP organoids, FACS for Atoh1-nGFP cells; conditions: 10 days of differentiation (D10), standard differentiation treatment (CHIR99021 and LY411575) without or with pargyline
# Protocol: Differentiation of LCPs into a hair cell lineage. […] To analyze the effect of the Lsd1 inhibitors, the LCPs were treated with the small molecules combined with a differentiation drug cocktail, pargyline and CHIR99021 or CHIR99021 at 1, 2, 4, and 10 days (McLean et al., 2017).
# For the drug screening experiments, the expanded cells were passaged into a 96 well plate to test varying drug combinations. All experiments were done in triplicate at minimum. Atoh1-nGFP cells were quantified after 10 days in culture. The cell colonies were incubated in Cell Recovery Solution for 1 hour and dissociated into single cells using TrypleE. The total cell number and percentage of GFP+ cells were quantified using fluorescence activated cell sorting (FACS).
# We next tested the effect of Lsd1 inhibition on hair cell differentiation. In this assay, after the cells were expanded into organoids during the initial proliferation phase, differentiation was initiated using the combination of CHIR99021 and LY411575 and allowed to progress for 10 days (DO to D10). Organoids were monitored for the development of hair cells using FACS and qRT-PCR. […] Conversely, Myo7a expression increases throughout development and is a key marker of mature hair cells. All hair cell markers tested were elevated with the exception of Atoh1, which had begun to decrease 10 days after the initiation of differentiation.
# LCPs = assay: RNA sequencing of LCP organoids with and without pargyline
# Protocol: RNA sequencing. After RNA extractions were performed using the RNeasy Micro Kit (QIAGEN), the library preparation and RNA-sequencing was performed at the Dana Farber Cancer Institute Molecular Biology Core Facility. In brief, cDNA was synthesized from 2.5 ng of RNA using SMARTer V4 Kit (Clontech). Following fragmentation using M220 Focused-Ultrasonicator (Covaris), 2 ng of sheared cDNA was taken for library preparation using ThruPLEX DNA-seq kit (Rubicon Genomics). NextSeq500 Single-End 75 bp (SE75) Sequencing (Illumina) was performed on all 12 samples in one lane after they were indexed and pooled in equimolar to ensure 20-30 million reads per sample. Reads were aligned to mm10 augmented with Ensembl gene build 75 with STAR v2.5.2b (Dobin et al., 2013). Reads and alignments were assessed for quality using FastQC. Differential expression was evaluated using DESeq2. Genes were called differentially expressed when the absolute value of the fold change was >1.25 and FDR, was smaller than 0.05. Subsequent pathway analysis was performed using Ingenuity Pathway Analysis software (Qiagen).
# The effect of pargyline on the differentiation of hair cells could be broad and we therefore evaluated its effect on the gene expression patterns of Lsd1 inhibitor-treated and untreated samples. The samples analyzed included the undifferentiated organoids following expansion (DO) and the differentiated organoids following 10 days of differentiation, with and without pargyline treatment (D10). […] In addition, 90% of the genes aligned to the genome and over 22,000 genes were detected in each sample. […] The times here refer to the beginning and end of differentiation and the finding was that most of the difference between samples was due to the 10 days of differentiation. Consistently, the principle component analysis (PCA) clustered the samples by the time of differentiation (responsible for 62% of the variation between samples) and the treatment (20% of the variation: FIG. 10B). Lsd1 inhibition in the presence of CHIR99021 altered gene expression and caused the pargyline-treated samples to cluster separately from those treated with CHIR99021 alone.
# Differential expression analysis of the samples was also performed using DESeq2 (Love et al., 2014). […] We further compared the gene expression profiles of the samples. Compared to the undifferentiated (DO), approximately […]) and 3365 genes were differentially expressed in the D10 or D10+pargyline samples, respectively. The addition of pargyline compared to the untreated samples altered the expression of approximately 474 genes (padj<0.05, fold change >1.25).
# Gene set enrichment analysis (GSEA) using gene sets associated with biological process gene ontology terms (Subramanian et al., 2005) was next performed to gain insight into the relevant pathways altered in this dataset. The analysis accounts for coordinated differential expression over pre-defined gene sets, instead of changes in individual genes. Pathways related to the cell cycle and proliferation were the most enriched after pargyline treatment, particularly the p53 and PI3/AKT, MAPK and RAS pathways (−0.503, −0.33). although these cells were in the differentiation phase. […] Here we present the top 15 differentially expressed hair cell receptor genes. […] Collectively, these findings corroborate increasing hair cell differentiation with Lsd1 inhibition.
# Tcf/Lef = Tcf/Lef luciferase reporter assay of Wnt activity in inner ear organoids; conditions: addition of pargyline to CHIR99021 or LYCH; luciferase at 48 hours
# Protocol: Luciferase assay. Wnt activity was assessed in inner ear organoids using lentiviral vector expressing Firefly luciferase under the control of 7 Tcf binding sites (Fuerer and Nusse, 2010). Cochlear progenitor cells were dissected from sensory epithelia of wild-type neonatal mice using the established protocol described above (McLean et al., 2017). Dissociated cells were resuspended in proliferation media contain poly brene (Sigma) and lentivirus reporter (7TFC, Addgene #24307) and plated in 96 well plate coated with matrigel for 12-16 hours, [adapted from (Maru et al., 2016)]. The following day, media (containing dead cells and virus) was aspirated and a top layer of matrigel applied to the adherent cells and allowed to solidify, followed by addition of proliferation media. Media was changed every 2 days for 10 days as organoids developed. At day 10, media was changed to differentiation conditions with removal of growth factors and treatment with drug combinations described above. […] Luciferase was measured at 48 hours and normalized to total protein concentration.
# Active canonical Wnt signaling is facilitated by the nuclear translocation of β-catenin, which binds with transcription factors of the Tcf/Lef family to activate transcription. […] We also analyzed Wnt activity in the treated cells using a Tcf/Lef reporter assay.
# LCP organoids = assay: Immunostaining of differentiated organoids for Atoh1 and Myo7a
# From the text: Immunochemistry. […] Nuclei were visualized using DAPI (Vector Laboratories).
# [1] = D10 with pargyline compared to untreated
# [2] = pargyline-treated samples, p<0.05
smiles,measurement,setting,value
"C#CCN(C)Cc1ccccc1 [pargyline, N-Methyl-N-propargylbenzylamine]",percentage of Atoh1-nGFP cells in culture,Atoh1-nGFP cells,39%
same,genes differentially expressed compared to the undifferentiated (D0),LCPs; D10+pargyline samples versus D0,~3365 genes
same,genes downregulated,LCPs; [1],330 genes
same,genes upregulated,LCPs; [1],144 genes
same,genes with altered expression,"LCPs; D10 with pargyline compared to untreated, padj<0.05, fold change >1.25",approximately 474 genes
same,"gene set enrichment score, development of auditory receptors (GO:0060117)","LCPs; GSEA after pargyline treatment, p<0.1",0.62
same,top 15 differentially expressed Wnt target genes: number downregulated,LCPs; [2],13 genes
same,top 15 differentially expressed Wnt target genes: number upregulated,LCPs; [2],2 genes
same,Tcf/Lef activity,Tcf/Lef,no significant difference
same,immunostaining for Atoh1 and Myo7a,LCP organoids,almost uniformly positive
